Earlier results on four compounds are cited in patent publication US20060223182A1, “Device for producing autologous VEGF” (priority 2005, published 2006).

Read-outs that look alike come from different tables or passages of the source.

The test system of data set [1] is human keratinocytes. The conditions noted are these: baseline about 200 pg/ml.
The next data set deals with human macrophages. The note with it: 0.5 mM H2O2 for about 30 minutes.
The subject of data set [2] is human keratinocytes. The note with it: human keratinocytes cultured in H2O2, with cycloheximide.

With `OO` [H2O2, hydrogen peroxide], in the data set on human keratinocytes [1] (H2O2 250 uM), the VEGF production level entry was “about 600 pg/ml”. Besides, the “VEGF produced per cell” value with human macrophages is recorded as “about 2.5 fg VEGF/cell”.

`C[C@@H]1C[C@@H]([C@H](O)CC2CC(=O)NC(=O)C2)C(=O)[C@@H](C)C1` [cycloheximide]: the “level of mRNA produced by the superinduction relative to mere addition of H2O2” value in the data set on human keratinocytes [2] is reported as “at least 10 fold”.

As to “TGF-β: growth factor, obtainable from platelet releasate”, in the data set with VSMCs (0.3 ng/ml TGF-β, 4 hours, 21% O2, printed as 'similar increase' to 2.5% O2 alone), the “increase in steady state levels of VEGF mRNA” value is 1.5-2 fold. For the same compound, the “increase in the level of VEGF mRNA” value with VSMCs (combined treatment of TGF-β and incubation at 2.5% O2) is given as about 7 fold. Regarding TNF-α, in the data set with human keratinocytes [1] (TNF-α 25 ng/ml), the VEGF production level result is on record as “about 600 pg/ml”.
